# Reference: patent US20240010726A1, “LFA-1 SIGNALLING MEDIATOR FOR USE IN CANCER THERAPY” (Universität Basel, priority 2020, published 2024)
# Tested on: anti-PSMA CAR T cells co-cultured with PC3-PIP
# Assay: Cytokine release assay of anti-PSMA CAR T cells (IFNγ ELISA)
# Assay type: cell-based, human
# Details: 24 h; 0 mM vs 0.6 mM Mg^2+
# Description: FIG. 3: Magnesium regulates LFA-1 mediated T cell activation and cytotoxicity as well BiTE- and CAR T-cell functionality. (a) Glycolytic switch of murine WT and LFA-1^−/− CTLs upon injection of anti-CD3/28 Ab in medium containing 1.2 mM Mg^2+ and 0 mM Mg^2+, presented as quantification of summarized data with n=4 mice. (b) Calcium flux in WT and LFA-1^−/− Jurkat T cells stimulated with anti-CD3 Ab in 1.2 mM and 0 mM Mg^2+ medium, respectively. Cells were loaded with Fluo4, and signal intensity as recorded by plate reader, was normalized to unstimulated baseline values. […] Quantified results of n=3 mice with 3 technical replicates each. […] The effector to target cell ratio was 3:1. Results are quantified of n=3 mice with 3 technical replicates each. (e) Representative CD11a (LFA-1) surface expression on human naïve and EM CD8 T cells, PHA T cell blasts and REP T cells, assessed by flow cytometry. […] The effector to target cell ratio was 1:1. Data is presented as quantified results of n=5 healthy donors (f, g, h), n=3 healthy donors with 2 technical replicates each or n=1 healthy donor with 4 technical replicates (j). […] Data is presented as quantified results of n=1 healthy donor with 4 technical replicates. […] (p) Abundance of IFNγ in cell culture supernatants corresponding to the conditions depicted in (o) at 24 hours was determined by ELISA (n=8, 3 independent experiments). […]
smiles,measurement,value
"[Mg+2] [Mg^2+, Magnesium]",IFNγ release,reduced inflammatory IFNγ release
